Data set [1] in a line: aqueous solution stability. To be noted: hydrochloride salt.
For data set [2] the following is noted: buffer.

Each structure is given as a SMILES string. Read-outs that look alike come from different tables or passages of the source. Where only a bound is given, the exact number is not on record here.

As for `CCN(CC)CC(=O)N[C@H](C(=O)OCN1C(=O)CCC(N2C(=O)c3ccccc3C2=O)C1=O)C(C)C.Cl` (stereo partly drawn) [Example 1, (S)-2-(diethylaminoacetamido)-3-methyl butyric acid 2-(1-(hydroxymethyl)-2,6-dioxopiperidin-3-yl)isoindoline-1,3-dione ester hydrochloride], in data set [1], the “aqueous solution stability t1/2” value was above 8 h.

As to `CC(C)[C@H](NC(=O)CN(C)C)C(=O)OCN1C(=O)CCC(N2C(=O)c3ccccc3C2=O)C1=O.Cl` (stereo partly drawn) [Example 2, (S)-2-(dimethylaminoacetamido)-3-methyl butyric acid 2-(1-(hydroxymethyl)-2,6-dioxopiperidin-3-yl)isoindoline-1,3-dione ester hydrochloride], in data set [1], the “aqueous solution stability t1/2” value is above 8 h. Regarding `CC(C)[C@H](NC(=O)CN1CCCCC1)C(=O)OCN1C(=O)CCC(N2C(=O)c3ccccc3C2=O)C1=O.Cl` (stereo partly drawn) [Example 3, (S)-2-(1-piperidinylacetamido)-3-methyl butyric acid 2-(1-(hydroxymethyl)-2,6-dioxopiperidin-3-yl)isoindoline-1,3-dione ester hydrochloride], in data set [1], the “aqueous solution stability t1/2” value is above 8 h. Consider `CCN(CC)CC(=O)OCN1C(=O)CCC(N2C(=O)c3ccccc3C2=O)C1=O.Cl` (centres unmarked) [Example 4, Diethylaminoacetic acid 2-(1-(hydroxymethyl)-2,6-dioxopiperidin-3-yl)isoindoline-1,3-dione ester hydrochloride], for which, in data set [2], the “aqueous solution stability t1/2” value is above 8 h. In the case of `CN(C)CC(=O)OCN1C(=O)CCC(N2C(=O)c3ccccc3C2=O)C1=O.Cl` (centres unmarked) [Example 5, Dimethylaminoacetic acid 2-(1-(hydroxymethyl)-2,6-dioxopiperidin-3-yl)isoindoline-1,3-dione ester hydrochloride salt], in data set [2], the “aqueous solution stability t1/2” value was above 4 h.
